US20250235531A1, “MUCOSAL ADMINISTRATION METHODS AND FORMULATIONS” (priority 2022, published 2025)

Experiments:
HeLa = test: Protein expression in human cervical cancer epithelial cell (HeLa) model, NPI-Luc mRNA LNPs; format: cell-based; settings: LNP core Compound 18, DSPC
Description: NPI-Luc is a dual read reporter made by adding a 5×V5 tag and a C-myc nuclear localization sequence at the N-terminus of Firefly Luciferase to enhance the signal to noise ratio. Protein expression can be detected using OneGLo assays with luminescence readout or by immunofluorescence with anti-V5 antibodies. Protein expression was evaluated according to the procedure outlined in Example 6. The LNPs are dosed in 4 wells and the average response was reported. For the HeLa assay the luminescence read (RLU) were normalized to cell counts.

healthy HBE cells = test: LNP cellular uptake and protein expression in healthy HBE cells; format: cell-based, human; settings: NPI-Luc mRNA, LNP core Compound 18, DSPC, Cholesterol, and DMG-PEG 2K
Description: NP-Luc is a dual read reporter made by adding a 5×V5 tag and a C-myc nuclear localization sequence at the N-terminus of Firefly Luciferase to enhance the signal to noise ratio. Protein expression can be detected using OneGLo assays with luminescence readout or by immunofluorescence with anti-V antibodies. LNP cellular uptake and protein expression was evaluated according to the procedure outlined in Example 5.

[1] = Nanoparticle zeta potential (Malvern Zetasizer); format: physicochemical; settings: [mRNA] 0.01 mg/mL in 0.1×PBS, core LNP Compound 18, DSPC, Cholesterol, and DMG-PEG 2K
Description: LNPs were prepared according to Example 1. Zeta potential was measured by diluting LNPs to [mRNA]0.01 mg/mL in 0.1×PBS on a Malvern Zetasizer (Nano ZS).

[2] = Luciferase mRNA nanoparticle biophysical data (DLS diameter and PDI, Ribogreen encapsulation); format: physicochemical; settings: luciferase mRNA nanoparticles (IL1:DSPC:cholesterol:PEG-DMG-2K) modified with the lipid amine; for Diameter (nm) / PDI: DLS; for % Encapsulation (Ribogreen): Ribogreen assay
Description: Lipids are dissolved in ethanol at a concentration of 24 mg/mL and molar ratios of 49.0:11.2:39.3:0.5 (IL1:DSPC:cholesterol:PEG-DMG-2K) and mixed with the acidification buffer (45 mM acetate buffer at pH 4). The lipid solution and acidification buffer are mixed using a multi-inlet vortex mixer at a 3:7 volumetric ratio of lipid:buffer for mixer 1 and mixer 2 and a 1:3 volumetric ratio of lipid:buffer (25% ethanol) for mixer 3. After a 5 second residence time, the resulting nanoparticles are mixed with 55 mM sodium acetate at pH 5.6 at a volumetric ratio of 5:7 of nanoparticle:buffer. See Table 24 for mixing parameters. The resulting dilute nanoparticles are then buffer exchanged and concentrated using tangential flow filtration (TFF) into a final buffer containing 5 mM sodium acetate pH 5.0. Then a 70% sucrose solution in 5 mM acetate buffer at pH 5 is subsequently added.
The resulting nanoparticles at a lipid concentration of 7.33 mg/mL in 5 mM acetate (pH 5) and 75 g/L sucrose are mixed with mRNA (luciferease) at a concentration of 0.625 mg/mL in 42.5 mM sodium acetate pH 5.0, with N:P of 4.93. The nanoparticle solution and nanoparticles are mixed using a multi-inlet vortex mixer at a 3:2 volumetric ratio of nanoparticle:mRNA. Once loaded with mRNA, these intermediate nanoparticles undergo a 300 second residence time prior addition of neutralization buffer containing 120 mM TRIS pH 8.12 at a volumetric ratio of 5:1 of nanoparticle:buffer.
For HeLa studies evaluating luciferase protein expression, PEG-DMG-2K dissolved in a 20 mM TRIS buffer (pH 7.5) is added to the neutralized intermediate nanoparticle solution at a ratio of 1:6, bringing the solution to the final molar ratios of IL1:DSPC:cholesterol:PEG-DMG-2K of 48.5:11.1:38.9:1.5%. This nanoparticle formulation is then modified with lipid amines. In a typical example, nanoparticle formulation at a concentration of 0.18 mg/mL mRNA and a 0.56 mL volume is modified with lipid amine SA50 (467.2 nmol) prepared in buffer containing 20 mM IRIS, 14.3 mM sodium acetate, 32 g/L sucrose and 140 mM NaCl—pH 7.5 at a volumetric ratio of 1:1 of nanoparticle: buffer.
Resulting nanoparticle suspensions are filtered through a 0.8/0.2 μm capsule filter and filled into glass vials at an mRNA strength of about 0.1-1 mg/mL Biophysical data (Diameter and PDI from DLS measurements and % Encapsulation using Ribogreen assay) for luciferase mRNA nanoparticles with lipid amines is shown in Table 26.

[3] = system: respiratory epithelium (trachea, bronchi); test: LNP protein expression in rat respiratory epithelium after single intratracheal dose (anti-V5 IHC); settings: intratracheal ~1.2 mpk, NPI-Luc mRNA, LNP core Compound 18, DSPC, Cholesterol, and DMG-PEG 2K
Description: (§1) Animals are anesthetized under isoflurane. The tongue is displaced and a small diameter cannula is inserted into the trachea (oropharyngeal route). The cannula tip is passed through the vocal chords, down the trachea so that the tip is very near, but not touching, the carina. Upon placement, 50 μL (mouse) or 200 μL (rat) of formulation is infused into the lungs. After 30 seconds upright, animads are released into a recovery cage and returned to their respective cages once recovered.
(§2) Trachea, lungs and for the aerosol study nasal cavities, nasopharynx and larynx are collected for analysis. Lungs are inflated with 10% NBF fixative and trachea tied off to maintain inflation. Lungs are removed en bloc with attached trachea, bronchi and lobes. […]
(§3) IHC was performed on FFPE sections using the Leica Bond RX autostainer. NPI-Luc protein expression was detected by anti-V5 tag antibody at a 1:100 dilution. V5 antibody was detected with the Bond Polymer Refine Detection kit followed by hematoxylin and bluing reagent counterstain. […] Trachea, lung and/or nasal cavity images were analyzed to capture total tracheal, bronchial or nasal epithelial cells and data expressed when appropriate as % V5 positive epithelial cells per total epithelial cells per animal. […]

[4] = system: respiratory epithelium (trachea, bronchi); test: LNP protein expression in mouse respiratory epithelium after single intratracheal dose (anti-V5 IHC); settings: intratracheal ~0.7 mpk, NPI-Luc mRNA, LNP core Compound 18, DSPC, Cholesterol, and DMG-PEG 2K
Description: as §1, §2, §3

Row | SMILES | Average accumulation of LNP in healthy HBE (% positive cells) (healthy HBE cells; β-sitosterol) | Average protein expression in healthy HBE (% V5 positive cells) (healthy HBE cells; β-sitosterol) | Zeta Potential (mV) ([1]; β-sitosterol) | Diameter (nm) [2] [nm] | PDI [2] | % Encapsulation (Ribogreen) [2] [%] | also measured
1 | CC(C)CCC[C@@H](C)[C@H]1CC[C@H]2[C@@H]3CC=C4C[C@@H](OC(=O)NCCN(C)C)CC[C@]4(C)[C@H]3CC[C@]12C [SA4] |  |  |  |  |  |  | Average protein expression per cell (RLU per cell) (HeLa; Cholesterol, and Compound 428): 248.5 RLU per cell
2 | CC(C)CCC[C@@H](C)[C@H]1CC[C@H]2[C@@H]3CC=C4C[C@@H](OC(=O)CCC(=O)N(CCCN)CCCCN)CC[C@]4(C)[C@H]3CC[C@]12C [SA31] | 43.2 | 11.1 | 8.6 |  |  |  | 
3 | CC(C)CCC[C@@H](C)[C@H]1CC[C@H]2[C@@H]3CC=C4C[C@@H](OC(=O)N(CCCN)CCCCN)CC[C@]4(C)[C@H]3CC[C@]12C [SA29] | 56.2 | 12.1 | 8.3 |  |  |  | 
4 | CC(C)CCC[C@@H](C)[C@H]1CC[C@H]2[C@@H]3CC=C4C[C@@H](OC(=O)NCCNC(=N)N)CC[C@]4(C)[C@H]3CC[C@]12C [SA23] | 34.3 | 9.1 | 12.7 |  |  |  | 
5 | CC[C@H](CC[C@@H](C)[C@H]1CC[C@H]2[C@@H]3CC=C4C[C@@H](OC(=O)N(CCCCNCCC(C)N)CCC(C)N)CC[C@]4(C)[C@H]3CC[C@]12C)C(C)C.Cl.Cl.Cl (stereo partly drawn) [SA111, (3S,8S,9S,10R,13R,14S,17R)-17-((2R,5R)-5-ethyl-6-methylheptan-2-yl)-10,13-dimethyl-2,3,4,7,8,9,10,11,12,13,14,15,16,17-tetradecahydro-1H-cyclopenta[a]phenanthren-3-yl (3-aminobutyl)(4-((3-aminobutyl)amino)butyl)carbamate trihydrochloride] |  |  |  | 76 | 0.18 | 99.6 | 
6 | CC(C)CCC[C@@H](C)[C@H]1CC[C@H]2[C@@H]3CC=C4C[C@@H](OC(=O)NCCCNCCCCN)CC[C@]4(C)[C@H]3CC[C@]12C [SA30] | 49.9 | 11.9 | 8.7 |  |  |  | 
7 | CC[C@H](CC[C@@H](C)[C@H]1CC[C@H]2[C@@H]3CC=C4C[C@@H](OC(=O)N(CCC5CC(N)C5)CCC5CC(N)C5)CC[C@]4(C)[C@H]3CC[C@]12C)C(C)C.Cl.Cl (stereo partly drawn) [SA186, (3S,8S,9S,10R,13R,14S,17R)-17-((2R,5R)-5-ethyl-6-methylheptan-2-yl)-10,13-dimethyl-2,3,4,7,8,9,10,11,12,13,14,15,16,17-tetradecahydro-1H-cyclopenta[a]phenanthren-3-yl bis(2-(3-aminocyclobutyl)ethyl)carbamate dihydrochloride] |  |  |  | 73 | 0.14 | 99.3 | 
8 | CC(C)c1ccc2c(c1)CC[C@H]1[C@](C)(CNC(=O)CCN(C)C)CCC[C@]21C [SA16] |  |  |  |  |  |  | Average protein expression per cell (RLU per cell) (HeLa; Cholesterol, and Compound 428): 14.5 RLU per cell
9 | CC[C@H](CC[C@@H](C)[C@H]1CC[C@H]2[C@@H]3CC=C4C[C@@H](SSCCC(=O)N(CCC5CC(N)C5)CCC5CC(N)C5)CC[C@]4(C)[C@H]3CC[C@]12C)C(C)C.Cl.Cl (stereo partly drawn) [SA187, N,N-bis(2-(3-aminocyclobutyl)ethyl)-3-(((3S,8S,9S,10R,13R,14S,17R)-17-((2R,5R)-5-ethyl-6-methylheptan-2-yl)-10,13-dimethyl-2,3,4,7,8,9,10,11,12,13,14,15,16,17-tetradecahydro-1H-cyclopenta[a]phenanthren-3-yl)disulfaneyl)propanamide dihydrochloride] |  |  |  | 73 | 0.17 | 99.0 | 
10 | CC(C)CCC[C@@H](C)[C@H]1CC[C@H]2[C@@H]3CC=C4C[C@@H](OC(=O)N(CCCN)CCCCNCCCN)CC[C@]4(C)[C@H]3CC[C@]12C [SA3] |  |  |  |  |  |  | Average protein expression per cell (RLU per cell) (HeLa; Cholesterol, and DMG-PEG 2K): 111.0 RLU per cell; Average accumulation of LNP in healthy HBE (% positive cells) (healthy HBE cells): 43.7 % positive cells; Average protein expression in healthy HBE (% V5 positive cells) (healthy HBE cells): 9.4 % V5 positive cells; Zeta Potential (mV) [1]: 10.6 mV; Average % V5 positive cells/total cells ([3]; Rat Bronchi (left and right lung)): 4.95 % V5 positive cells/total cell; Average % V5 positive cells/total cells ([3]; Rat Trachea): 2.97 % V5 positive cells/total cell; Average % V5 positive cells/total cells ([4]; Mouse Bronchi (left lung)): 9.33 % V5 positive cells/total cell; Average % V5 positive cells/total cells ([4]; Mouse Trachea): 40.7 % V5 positive cells/total cell
11 | CC(C)CCC[C@@H](C)[C@H]1CC[C@H]2[C@@H]3CC=C4C[C@@H](OC(=O)CCCC(=O)N(CCC5CC(N)C5)CCC5CC(N)C5)CC[C@]4(C)[C@H]3CC[C@]12C.Cl.Cl (stereo partly drawn) [SA188, (3S,8S,9S,10R,13R,14S,17R)-10,13-dimethyl-17-((R)-6-methylheptan-2-yl)-2,3,4,7,8,9,10,11,12,13,14,15,16,17-tetradecahydro-1H-cyclopenta[a]phenanthren-3-yl 5-(bis(2-(3-aminocyclobutyl)ethyl)amino)-5-oxopentanoate dihydrochloride] |  |  |  | 80 | 0.13 | 99.6 | 
12 | CC[C@H](CC[C@@H](C)[C@H]1CC[C@H]2[C@@H]3CC=C4C[C@@H](OC(=O)N(CC56CC(N)(C5)C6)CC56CC(N)(C5)C6)CC[C@]4(C)[C@H]3CC[C@]12C)C(C)C.Cl.Cl [SA189, (3S,8S,9S,10R,13R,14S,17R)-17-((2R,5R)-5-ethyl-6-methylheptan-2-yl)-10,13-dimethyl-2,3,4,7,8,9,10,11,12,13,14,15,16,17-tetradecahydro-1H-cyclopenta[a]phenanthren-3-yl bis((3-aminobicyclo[1.1.1]pentan-1-yl)methyl)carbamate dihydrochloride] |  |  |  | 78 | 0.33 | 98.1 | 
